Measured values reported in ChEMBL document CHEMBL1201862, “PubChem BioAssay data set” (2004).
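Dose response: 5 concentrations. Exposure: 48 h. Format: 96-well plates. Endpoint: linear interpolation; highest concentration if not reached. Abbreviation: GI50, concentration required for 50% inhibition of growth.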 Active and inactive are the calls of the source. Rule as the data show it: active = GI50 up to about 1.1 µM and inactive = higher.

What was measured:
Assay in all cases: NCI-60 cell line screen, 48 h
COLO 205 = test system: COLO 205
EKVX = test system: EKVX
HCT-116 = test system: HCT-116
IGROV-1 = test system: IGROV-1
KM12 = test system: KM12
M19-MEL = test system: M19-MEL
MOLT-4 = test system: MOLT-4
OVCAR-3 = test system: OVCAR-3
OVCAR-4 = test system: OVCAR-4
OVCAR-8 = test system: OVCAR-8
RXF 393 = test system: RXF 393
SF-268 = test system: SF-268
SW-620 = test system: SW-620
UACC-257 = test system: UACC-257
Hs-578T = test system: Hs-578T
MCF7 = test system: MCF7
MDA-MB-231 = test system: MDA-MB-231
MDA-MB-435 = test system: MDA-MB-435
PC-3 = test system: PC-3
T47D = test system: T47D

Compound | GI50 (COLO 205) | GI50 (EKVX) | GI50 (HCT-116) | GI50 (IGROV-1) | GI50 (KM12) | GI50 (M19-MEL) | GI50 (MOLT-4) | GI50 (OVCAR-3) | GI50 (OVCAR-4) | GI50 (OVCAR-8) | GI50 (RXF 393) | GI50 (SF-268) | GI50 (SW-620) | GI50 (UACC-257) | GI50 (Hs-578T) | GI50 (MCF7) | GI50 (MDA-MB-231) | GI50 (MDA-MB-435) | GI50 (PC-3) | GI50 (T47D)
C#CCOCn1cnc2ncnc(N)c21 | > 100 µM (inactive) | > 100 µM (inactive) | > 100 µM (inactive) | > 100 µM (inactive) | > 100 µM (inactive) | > 100 µM (inactive) | > 100 µM (inactive) | > 100 µM (inactive) | > 100 µM (inactive) | > 100 µM (inactive) | > 100 µM (inactive) | > 100 µM (inactive) | > 100 µM (inactive) | > 100 µM (inactive) | – | – | – | – | – | –
N[C@H](C(=O)O)[C@H](Cl)CC(=O)O | > 100 µM (inactive) | > 100 µM (inactive) | > 100 µM (inactive) | > 100 µM (inactive) | > 100 µM (inactive) | > 100 µM (inactive) | > 100 µM (inactive) | > 100 µM (inactive) | > 100 µM (inactive) | > 100 µM (inactive) | > 100 µM (inactive) | > 100 µM (inactive) | > 100 µM (inactive) | > 100 µM (inactive) | – | – | – | – | – | –
COc1ccccc1NC(=O)C1=C(C)NC(C)=C(C(=O)Nc2ccccc2OC)C1c1ccc(C2C(C(=O)Nc3ccccc3OC)=C(C)NC(C)=C2C(=O)Nc2ccccc2OC)cc1 | 3.33 µM (inactive) | 2.54 µM (inactive) | 1.3 µM (inactive) | 1.99 µM (inactive) | 1.64 µM (inactive) | 3.15 µM (inactive) | 1.19 µM (inactive) | 2.29 µM (inactive) | 3.94 µM (inactive) | 2.53 µM (inactive) | 2.38 µM (inactive) | 2.82 µM (inactive) | 1.86 µM (inactive) | 2.33 µM (inactive) | – | – | – | – | – | –
N#C/C1=C(\N)CCSSSC1 | 30.7 µM (inactive) | 45.9 µM (inactive) | 40.2 µM (inactive) | 29.7 µM (inactive) | 51.1 µM (inactive) | 32.1 µM (inactive) | 69.3 µM (inactive) | 46.3 µM (inactive) | 33.9 µM (inactive) | 21 µM (inactive) | 58.3 µM (inactive) | 42.9 µM (inactive) | 44.6 µM (inactive) | 35.8 µM (inactive) | – | – | – | – | – | –
Cc1cc(N(CC(C)Br)CC(C)Br)ccc1/N=N/c1ccccc1C(=O)O (stereo not drawn) | 5.47 µM (inactive) | 9.12 µM (inactive) | 4.99 µM (inactive) | 11 µM (inactive) | 13.4 µM (inactive) | 12.2 µM (inactive) | 16.9 µM (inactive) | 16.9 µM (inactive) | 2.09 µM (inactive) | 13.2 µM (inactive) | 0.881 µM (active) | 7.73 µM (inactive) | 20 µM (inactive) | 4.53 µM (inactive) | 11.1 µM (inactive) | 0.787 µM (active) | 14.8 µM (inactive) | 16.3 µM (inactive) | 12.9 µM (inactive) | 0.592 µM (active)
CC(=O)O[C@H]1C(=O)[C@@]2(C)C(C(OC(=O)c3ccccc3)[C@]3(O)C[C@H](OC(=O)C(OC(=O)CCCC(=O)NCCCN(C)C)C(NC(=O)c4ccccc4)c4ccccc4)C(C)=C1C3(C)C)C1(OC(C)=O)COC1C[C@@H]2O (stereo partly drawn) | < 0.01 µM (active) | 0.262 µM (active) | < 0.01 µM (active) | 0.0138 µM (active) | < 0.01 µM (active) | < 0.01 µM (active) | < 0.01 µM (active) | < 0.01 µM (active) | 8.71 µM (inactive) | < 0.01 µM (active) | 0.0171 µM (active) | 0.0109 µM (active) | < 0.01 µM (active) | 0.0143 µM (active) | < 0.01 µM (active) | < 0.01 µM (active) | < 0.0125 µM (active) | < 0.01 µM (active) | < 0.01 µM (active) | 0.149 µM (active)
Cc1ccc(S(=O)(=O)c2ccccn2)cc1 | > 100 µM (inactive) | > 100 µM (inactive) | > 100 µM (inactive) | > 100 µM (inactive) | > 100 µM (inactive) | > 100 µM (inactive) | > 100 µM (inactive) | > 100 µM (inactive) | > 100 µM (inactive) | > 100 µM (inactive) | > 100 µM (inactive) | > 100 µM (inactive) | > 100 µM (inactive) | > 100 µM (inactive) | – | – | – | – | – | –
O=C1NC2(CCCC2)C(=O)C12CCCC2 | > 100 µM (inactive) | > 100 µM (inactive) | > 100 µM (inactive) | > 100 µM (inactive) | > 100 µM (inactive) | > 100 µM (inactive) | > 100 µM (inactive) | > 100 µM (inactive) | > 100 µM (inactive) | > 100 µM (inactive) | > 100 µM (inactive) | > 100 µM (inactive) | > 100 µM (inactive) | > 100 µM (inactive) | – | – | – | – | – | –
FC(F)(F)C1(Cl)C(c2ccccc2)=C1c1ccccc1 | 16.6 µM (inactive) | 16.1 µM (inactive) | 13.9 µM (inactive) | 15.5 µM (inactive) | 15.6 µM (inactive) | 14.6 µM (inactive) | 4.01 µM (inactive) | 17.2 µM (inactive) | 13.5 µM (inactive) | 14.9 µM (inactive) | 13.3 µM (inactive) | 16.9 µM (inactive) | 13.4 µM (inactive) | 14 µM (inactive) | – | – | – | – | – | –
COc1ccc(C(=O)c2cc(OC)c(OC)c(OC)c2)cc1 | 0.0706 µM (active) | 0.484 µM (active) | 0.0703 µM (active) | 0.219 µM (active) | 0.0481 µM (active) | 0.893 µM (active) | 0.0715 µM (active) | 0.0769 µM (active) | 28.6 µM (inactive) | 0.382 µM (active) | 0.331 µM (active) | 0.838 µM (active) | 0.0556 µM (active) | 0.769 µM (active) | 0.111 µM (active) | 0.0991 µM (active) | 0.0881 µM (active) | 0.0197 µM (active) | 0.0775 µM (active) | 27.5 µM (inactive)
